# In patent US8865659B2, “Compositions for prevention or treatment of Hepatitis C virus containing ginsenoside Rg3 as an active ingredient” (priority 2012, dated 2014):
# Assays:
# TNF-α = assay: Real-time PCR for TNF-α level in virus-infected Huh 7.5.1 cells; type: cell-based
# Procedure: To identify a mechanism of apoptosis action, virus-infected Huh 7.5.1 cells were treated with ginsenoside Rg3 and conducted real-time PCR (Taqman Real-time Quantitative RT-PCR Assay for HCV RNA Detection) to estimate TNF-α level.
# First, a total number of 50,000 Huh 7.5.1 cells were incubated in 24 well and a total RNA was extracted from the above stated treated cells using Rneasy mini kit (QIAGEN Corp.). And then, the total RNA was quantified by Nanodrop 1000 (Thermo Scientific Corp.), and manufactured cDNA by conducting RT PCR (Reverse Transcription-PCR) using i cycler, (BIO-RAD Co.). After the synthesized cDNAs were reacted with TaqMan GX Master Mix (Applied Biosystems, Branchburg, N.J.), TNF-α, B-actin mRNAs were quantified by 96 well real-time PCR (StepOne Plus Sequence detector system, Applied Biosystems). Verified primer/probe set was purchased to conduct the TaqMan Gene Expression assay in this experiment (Gene: TNF-α (TNF-alpha) # Hs01113624_g1, Gene Symbol: ACTB # Hs99999903_m1).
# [1] = system: Hepatitis C virus (JFH-1); assay: Real-time PCR against JFH-1 mRNA in Huh 7.5.1 cells; type: cell-based; details: 100 μM, 72 hours
# Procedure: The experiment was carried out as follow. First, 200,000 Huh 7.5.1 cells were placed in a 60×15 mm cell culture dish. Next day, Japanese Fulminant Hepatitis-1 virus (JFH-1) stock vial which was stored in −70° C. refrigerator was taken out and thawed out in a container filled with ice-water. The culture medium was collected from the cultured 60×15 mm cell culture dish, washed with 1×PBS and collected, again. 1.5 ml of JFH-1 virus solution per 60×15 mm cell culture dish each was added. The dish was shaken to cover the surface sufficiently. The dish was laid in a 5% CO2 incubator at 37° C. for 6 hours and after that, the supernatant was draw out. 1×PBS was spread on the cell surface as slow as possible and after one time washing, cells were collected. 5 ml of cell culture media was added to control and JFH-1 treatments groups. […] After that, the cell culture media was laid in a 5% CO2 incubator at 37° C. After 72 hours, the following steps were carried out.
# As described in the above Example 3, the Huh 7.5.1 cells were treated with each 100 μM of seven ginsenosides (Ro, Re, Rg1, Rg2, Rg3, Rh1, Rh2). After 72 hours, a real-time PCR against JFH-1 mRNA was carried out. […]
# Specific real-time PCR carried out was as follow. […] After that, total RNA was extracted from the cells treated by the above described method by using Rneasy mini kit (QIAGEN) and quantified by using Nanodrop 1000 (Thermo Scientific). […]
smiles,measurement,setting,value
CC(C)=CCC[C@](C)(O)[C@H]1CC[C@]2(C)[C@@H]1[C@H](O)C[C@@H]1[C@@]3(C)CC[C@H](O[C@@H]4O[C@H](CO)[C@@H](O)[C@H](O)[C@H]4O[C@@H]4O[C@H](CO)[C@@H](O)[C@H](O)[C@H]4O)C(C)(C)[C@@H]3CC[C@]12C [ginsenoside Rg3],level of TNF-α,TNF-α,remarkably decreased
same,JFH-1 mRNA,[1],remarkably decreased
